Measured values taken from patent publication US6867305B2, “Synthesis of epothilones, intermediates thereto and analogues thereof” (Sloan-Kettering Institute for Cancer Research, priority 1996, dated 2005).
In brackets after ≈: the same amount, converted by molar mass. Several values for one entry are separate records, joined by “and”; a condition that tells them apart may be missing. Equal values may be shown once. Read-outs that look alike come from different tables or passages of the source.

What was measured:
DC-3F/ADII = assay: Tumor cell growth inhibition in vitro; format: cell-based, hamster; settings: for cross-resistance (fold of resistance vs parent cell line): DC-3F/ADII vs DC-3F; for IC50: DC-3F/ADII
Procedure: (§1) The fresh medium containing each drug was replenished every 7-14 days. […] In each case ,the drug-exposed cells were resuspended in fresh media for a minimum of 4 days before the experiments for the cell-growth inhibition was carried out.
(§2) The cells were cultured at an initial density of 2-5×10^4 cells per ml. They were maintained in a 5% CO2-humidified atmosphere at 37° C. in RPMI mediun 1640 (GIBCO/BRL) containing penicillin (100 units/ml), streptomycin (100 μg/ml) (GIBCO/BRL), and 5% heat-inactivated fetal bovine serum. For solid tumor cells growing in a monolayer (such as MCF-7/Adr), cytotoxicitiy of the drug was determined in 96-well microtiter plates by using the sulforhodamine B method as described by Skehan et al (23) for measuring the cellular protein content. For cells that were grown in suspension (such as CCRF-CEM and its sublines), cytotoxicitiy was measured by using the 2,-3-bis(2-methoxy-4-nitro-5-sulfophenyl)-5carboxanilide)-2H terazodium hydroxide (XTT)-microculture tetrazonium method (24) in duplicate in 96-well microtiter plates. For both methods, the absorbance of each well was measured with a microplate reader (EL-340, Bio-Tek, Burlington, Vt.). Each run entailed six or seven concentrations of the tested drugs. Dose-effect relationship data were analyzed with the median-effect plot (25) by using a previously described computer program (26).

MCF-7/Adr = assay: Tumor cell growth inhibition in vitro; format: cell-based, human; settings: for IC50: MCF-7/Adr; for cross-resistance (fold of resistance vs parent cell line): MCF-7/Adr vs MCF-7
Procedure: as §2, with “They were maintained in a 5% CO2-humidified atmosphere at 37° C. in RPMI mediun 1640 (GIBCO/BRL) containing penicillin (100 units/ml), streptomycin (100 μg/ml) (GIBCO/BRL), and 5% heat-inactivated fetal bovine serum.” left out

[1] = test system: UL-3-C ovarian adenocarcinoma; assay: Tumor cell growth inhibition in vitro; format: cell-based, human
Procedure: as §1, §2

[2] = test system: CCRF-CEM leukemia xenograft; settings: for body-weight reduction on day 28: CCRF-CEM-bearing nude mice, 15-azaEpoB 6 mg/kg Q2D×6
Procedure: Nude mice bearing well established CCRF-CEM tumor xenografts (average tumor size about 400 mm^3) were treated with 30 mg/kg of dEpoB or with 6 mg/kg of 15-azaEpoB, 6 hr-i.v. infusion Q2D×6 as shown in FIG. 37.
(§3) Depending on the tumor type, treatment started on day 10 to day 21 when subcutaneous tumor size reached 35-200 mm^3, except otherwise indicated. Tumor size and body-weight were recorded every other day (Q2D) and, for humane reasons, the animals were sacrificed when tumor size reached ≧10% of body-weight. Each group, including untreated control, consisted of 3-5 animals unless otherwise indicated.
(§4) Athymic nude mice bearing the nu/nu gene were used for all human tumor xenografts. Outbred, Swiss-background mice were obtained from Charles River Laboratories. Male mice 8 weeks or older weighing 22 g and up were used for most experiments. The drug was administered via the tail vein for 6 hr.-i.v. infusion. Each individual mouse was confined in a perforated Falcon polypropylene tube restrainer for drug administration. Tumor volume was assessed by measuring length×width×height (or width) using a caliper. The programmable Harvard PHD2000 syringe pump (Harvard Apparatus) with multi-track was used for i.v. infusion. […] All animal studies were conducted in accordance with the guidelines of the National Institutes of Health “Guide for the Care and Use of Animals” and the protocol approved by the Memorial Sloan-Kettering Cancer Center's Institutional Animal Care and Use Committee. In keeping with the policy of this committee for the humane treatment of tumor-bearing animals, mice were euthanized when tumors reached ≧10% of their total body weight.
(§5) Human tumor cells (5×10^6) or tumor tissue (30-50 mg) were implanted s.c. flank in nu/nu mice (Charles River Laboratories, Wilmington, Mass.). When tumor grew to a specified size, treatment was started by every-other day×5 with 6 hr i.v.-infusion, unless otherwise indicated. Tumor volume was measured with calipers in three dimensions (length×width×height or width). Body-weight changes and lethality were monitored every other day.

[3] = Body-weight decrease and lethality in tumor-bearing nude mice
Procedure: as §3
Essential features of useful cancer therapeutic agent involve not only high efficiency against cancer but also low toxicity toward the host, especially toward vital organs or functions [i.e. wide therapeutic window or high therapeutic index (LD50/ED50)].
as §5

[4] = test system: MX-1 mammary carcinoma xenograft
[5] = test system: HCT-116 colon carcinoma xenograft; assay: Human tumor xenograft in nude mice; format: in vivo; settings: for Therapeutic Effect Rank Order: HCT-116, i.v. infusion
Source text: Therapeutic efficacy of cancer chemotherapeutic agents varies with various factors including the tumor models used and the dosage of drug and schedules and routes of administration. […] In the present studies, we intended to compare the therapeutic effects of drugs near their maximal tolerated doses by measuring the extent of body-weight decreases and/or lethality.
as §3, §4, §5

[6] = CCRF-CEM, i.v. infusion, FIG. 5
[7] = HCT-116, dEpoB 30 mg/kg, Taxol 20 mg/kg, Q2Dx51x3, 6-hr i.v. infusion
[8] = CCRF/CEM, dEpoB 40 mg/kg, Taxol 20 mg/kg, Q2Dx4, 6-hr i.v. infusion

C/C(=C\c1csc(C)n1)C1C[C@@H]2O[C@]2(C)CCC[C@H](C)[C@H](O)[C@@H](C)C(=O)C(C)(C)C(O)CC(=O)N1 (stereo partly shown) [aza-EpoB, aza-epothilone B]
cross-resistance (fold of resistance vs parent cell line) (DC-3F/ADII): 274 x
cross-resistance (fold of resistance vs parent cell line) (DC-3F/ADII; listed as 15-aza-EpoB): 33.1 x
IC50 (DC-3F/ADII; listed as 15-aza-EpoB, read-out: IC50): 288 nM
IC50 (DC-3F/ADII; read-out: IC50): 2380 nM
IC50 (MCF-7/Adr; Homo sapiens, NCI/ADR-RES, read-out: IC50): 11.8 nM
cross-resistance (fold of resistance vs parent cell line) (MCF-7/Adr): 2.7 x
IC50 ([1]; Homo sapiens, read-out: IC50): 1.2 nM
Therapeutic Effect Rank Order [2, 6]: dEpoF>>>15-azaEpoB
therapeutic effect on tumor growth ([2]; CCRF-CEM, tumor about 400 mm^3, 15-azaEpoB 6 mg/kg, 6 hr-i.v. infusion Q2D×6): Moderate suppression of tumor growth
body-weight reduction on day 28 ([2]; dEpoF 30 mg/kg): about 10%
drop in body-weight that led to lethality ([3]; nude mice): 14-20%
mice died of toxicity on day 22 ([4]; MX-1-bearing mice, azaEpoB 6 mg/kg): one out of five
Therapeutic Effect Rank Order ([4]; mouse, in vivo, iv): dEpoB>>>15-azaEpoB

C/C1=C/C[C@@H](/C(C)=C/c2csc(CO)n2)OC(=O)C[C@H](O)C(C)(C)C(=O)[C@H](C)[C@@H](O)[C@@H](C)CCC1 [dEpoF, 12,13-Desoxyepothilone F]
IC50 (DC-3F/ADII): 18.1 nM
IC50 (DC-3F/ADII; Mesocricetus auratus, DC3F): 22.3 nM
IC50 (MCF-7/Adr; Homo sapiens, NCI/ADR-RES): 9.7 nM
IC50 (MCF-7/Adr): 18.6 nM
cross-resistance (fold of resistance vs parent cell line) (MCF-7/Adr): 1.4 x and 1.9 x
IC50 ([1]; Homo sapiens, read-out: IC50): 4.8 nM
Therapeutic Effect Rank Order [5]: Taxol, CPT-11≈dEpoB, dEpoF
tumor free mice on day 28 ([2]; CCRF-CEM, dEpoF 30 mg/kg, 6 hr-i.v. infusion Q2D×6): one of three mice was tumor free
Therapeutic Effect Rank Order [2, 6]: dEpoF>>>15-azaEpoB
body-weight reduction on day 28 ([2]; dEpoF 30 mg/kg): about 10%
drop in body-weight during treatment without causing lethality ([3]; nude mice): 23-29%
therapeutic effect on tumor growth ([4]; MX-1, dEpoF 15 mg/kg Q2D×5, 6 hr-i.v. infusion): tumor growth was partially suppressed
tumor disappearance (tumor free mice) ([4]; MX-1, dEpoF 30 mg/kg Q2D×5, 6 hr-i.v. infusion): three out of five
solubility (physchem): ~25000 µg/mL (≈ 49.2 mM)

CC(=O)O[C@H]1C(=O)[C@@]2(C)[C@H]([C@H](OC(=O)c3ccccc3)[C@]3(O)C[C@H](OC(=O)[C@H](O)[C@@H](NC(=O)c4ccccc4)c4ccccc4)C(C)=C1C3(C)C)[C@]1(OC(C)=O)CO[C@@H]1C[C@@H]2O [Taxol, paclitaxel, reference compound]
IC50 (DC-3F/ADII): 20200 nM
IC50 (DC-3F/ADII; listed as Paclitaxel): 583 nM
IC50 [1]: 1.5 nM
IC50 ([1]; Homo sapiens): 1.6 nM
Tumor Disappearance [5, 7]: 3/3
body-weight decrease without lethality at the doses used ([3]; mouse, in vivo): 10-20%
solubility (physchem; water): ~600 µg/mL (≈ 0.703 mM)

C/C1=C/C[C@@H](/C(C)=C/c2csc(C)n2)OC(=O)C[C@H](O)C(C)(C)C(=O)[C@H](C)[C@@H](O)[C@@H](C)CCC1 [dEpoB, 12,13-desoxyepothilone B]
IC50 (MCF-7/Adr; Homo sapiens, NCI/ADR-RES): 7.15 nM
IC50 (MCF-7/Adr): 13.3 nM
IC50 ([1]; Homo sapiens, read-out: IC50): 2.1 nM
Therapeutic Effect Rank Order [5]: Taxol, CPT-11≈dEpoB, dEpoF
Lowest Average Tumor Size (T/C) [5, 7]: 0
Tumor Disappearance [5, 7]: 1/2
Therapeutic Effect Rank Order ([2]; CCRF-CEM, i.v. infusion (dEpoB vs Taxol)): dEpoB≈Taxol
Lowest Average Tumor Size (T/C) [2, 8]: 0
Tumor Disappearance [2, 8]: 2/2
body-weight decrease without lethality at the doses used ([3]; dEpoB 30-40 mg/kg, paclitaxel 15-24 mg/kg, 6-hr i.v. infusion): 10-20%
drop in body-weight during treatment without causing lethality ([3]; nude mice): 23-29%
tumor disappearance on day 22 ([4]; MX-1, dEpoB 30 mg/kg Q2D×6 (day 10-20) then Q2D×5 (day 26-34)): ⅕
tumor disappearance on day 38 ([4]; MX-1, dEpoB 30 mg/kg Q2D×6 then Q2D×5): ⅖
body-weight gain during day 36-40 ([4]; MX-1-bearing mice, after dEpoB second cycle): about 2 gm
body-weight decrease on day 22 ([4]; MX-1-bearing mice, dEpoB 30 mg/kg Q2D (day 10-20)): about 3.5 gm
body-weight drop on day 36 ([4]; MX-1-bearing mice, dEpoB second cycle Q2D×5 (day 26-34)): about 4.1 gm
Lowest Average Tumor Size (T/C) ([4]; mouse, in vivo): 0
Therapeutic Effect Rank Order ([4]; mouse, in vivo): dEpoB>Adriamycin>Taxol
Tumor Disappearance ([4]; mouse, in vivo): 5/5
Therapeutic Effect Rank Order ([4]; mouse, in vivo, ip): dEpoB>Camptothecin>Taxol>VBL, EpoB
solubility (physchem): ~10000 µg/mL (≈ 20.3 mM)
